Results from US9708359B2, “Pyrrolopyrimidine nucleosides and analogs thereof” (Chimerix, Inc., priority 2015, dated 2017).
Like-named read-outs stand apart in the source and are kept apart here.

How the values were obtained:
[1] = tested on: BKV; assay: qPCR assay for BKV; format: cell-based, BK virus; settings: Betapolyomavirus hominis, HFF cells
Procedure: (§1) qPCR Assays for BKV and JCV:
Primary assays for BK virus were performed in 96-well plates containing monolayers of HFF cells. Compound dilutions were prepared in plates containing cells which were subsequently infected at with the Gardner strain of BK virus. After a 7 d incubation, total DNA was prepared with a purification kit and genome copy number was quantified by real time PCR. Compounds that were positive in this assay were confirmed in a similar assay in 96-well plates with the compounds added 1 h […] to identify compounds that inhibit early stages of replication including adsorption and penetration. Genome copy number was determined by methods described above.
Primary assays for BK virus were performed in 96-well plates containing monolayers of HFF cells. Compound dilutions were prepared in plates containing cells which were subsequently infected at with the Gardner strain of BK virus. After a 7 d incubation, total DNA was prepared with a Wizard SV 96 well purification kit and genome copy number was quantified by real time PCR using the primers 5′-[…]-3′ (SEQ ID No. 8) , 5′-[…]-3′ (SEQ ID No. 9) and probe 5-6-FAM […]-3′ (SEQ ID No. 10) . Plasmid pMP526 served as the DNA standard for quantitation purposes. […] Genome copy number was determined by methods described above.

[2] = tested on: HHV-8; assay: cells; format: cell-based, human herpes virus 8; settings: Homo sapiens, BCBL1; HHV-8, BCBL-1 cells
[3] = tested on: VACV; assay: microbe, parasite or virus in culture; format: cell-based; settings: Orthopoxvirus vaccinia, HFF
[4] = tested on: JCV; assay: qPCR assay for JCV; format: cell-based, JC virus; settings: JC polyomavirus, 293TT cells
Procedure: as §1
Primary evaluation of compounds against JC virus were also performed by methods similar to those for BK virus primary assays. Secondary assays against JCV were performed in COS7 cells by methods similar to those for BK virus to identify compounds that inhibited adsorption or penetration of the virus.
Primary evaluation of compounds against JC virus were also performed by methods similar to those for BK virus primary assays but were done in 293TT cells and utilized the 1-4 strain of JCV in 293TT cells. Viral DNA was quantified using primers 5′-[…]-3′ (SEQ ID No. 11) and 5′-[…]-3′ (SEQ ID No. 12) and probe 5′-6-FAM-[…]-TAMRA-3′ (SEQ ID No. 13) together with the plasmid pMP508 to provide a standard curve for absolute quantification. Secondary assays against JCV were performed in COS7 cells by methods similar to those for BK virus to identify compounds that inhibited adsorption or penetration of the virus.

[5] = tested on: SARS; assay: organism not typed; format: cell-based, SARS CoV; settings: Vero 76
[6] = tested on: VEEV; assay: microbe, parasite or virus in culture; format: cell-based; settings: Venezuelan equine encephalitis virus, Vero 76
[7] = Cytotoxicity in lymphocyte assays, Akata cells; format: cell-based; settings: human, parallel to EBV assay
Procedure: (§2) Every antiviral assay included a parallel cytotoxicity assay with the same cells used for each virus, the same cell number, the same drug concentrations, and the same incubation times to provide the same drug exposure. To ensure that the cytotoxicity of all compounds could be compared directly, a standard neutral red uptake cytotoxicity assay for all compounds in confluent HFF cells with a 7 d incubation period was performed.
(§3) Cytotoxicity in Lymphocyte Assays:
(§4) Cell viability in all assays with lymphocytes was assessed with a luminescent Cell Viability Assay. Briefly, assay plates were incubated at ambient temperature for 30 min then luminescent reagent was added to each well and the plates were mixed to lyse the cells. Plates were then incubated for at ambient temperature and the luminescence was quantified on a luminometer. Standard methods were used to calculate drug concentrations that inhibited the proliferation of cells by 50% (CC50).
(§5) Cell viability in all assays with lymphocytes was assessed with the CellTiter-Glo Luminescent Cell Viability Assay (Promega). […] Plates were then incubated for an additional 10 min at ambient temperature and the luminescence was quantified on a luminometer. […]

[8] = Cytotoxicity in lymphocyte assays, MOLT-3 cells; format: cell-based; settings: human, parallel to HHV-6B assay
Procedure: as §2, §3, §4, §5

[9] = in vitro; settings: dog
[10] = Cytotoxicity (CC50) in RAW cells; settings: mouse
[11] = tested on: mouse norovirus; assay: Mouse Norovirus (MNV) assay in RAW cells

Compound Cc1nc(N)c2c(C(N)=O)cn([C@@H]3O[C@H](CO)[C@@H](O)[C@H]3O)c2n1 [Compound 1, 4-amino-7-((2R,3R,4S,5R)-3,4-dihydroxy-5-(hydroxymethyl)tetrahydrofuran-2-yl)-2-methyl-7H-pyrrolo[2,3-d]pyrimidine-5-carboxamide] has an EC50 [1] greater than 60 µM, an EC50 [2] greater than 12 µM and an EC50 [3] of 56.2 µM. It also gave an EC50 [4] of 460 nM, an EC50 [5] of 37 µM and an EC50 [6] greater than 100 µM. For the same compound, the CC50 [7] was greater than 60 µM, the CC50 [8] was 44.7 µM and the CC50 [9] was greater than 100 µM. It also gave a CC50 [10] of 114 µM, an EC50 ([11]; Norovirus, in Mus musculus, read-out: EC50 value against mouse norovirus, in vitro, unit inferred) of roughly 2100 nM and an EC50 ([11]; Norovirus, in Mus musculus, read-out: MNV Mean EC50, RAW cells) of 2000 nM. For the same compound, the EC50 ([11]; murine norovirus, Table 7) was 1700 to 3600 nM.
